Results as given in article PMC10013830 (Molecular Plant Pathology, 2023).
Entries after “also recorded” stand apart in the source; their conditions may differ.

What was measured:
[1] = system: XccR binding to the luxXc box; assay: EMSA: effect of sugars on binding of XccR to the luxXc box; details: XccR-MBP, increasing sugar concentrations (glucose 0.005-5 μM)
[2] = system: pip promoter (Xcc 8008, pip-GUS reporter); format: cell-based, Xanthomonas campestris pv. campestris
[3] = molecular target: T1, LasR (Pseudomonas aeruginosa, UniProt P25084); assay: MST LasR–glucose interaction; format: binding; details: Figure S7d
T1 sequence (P25084 1-239): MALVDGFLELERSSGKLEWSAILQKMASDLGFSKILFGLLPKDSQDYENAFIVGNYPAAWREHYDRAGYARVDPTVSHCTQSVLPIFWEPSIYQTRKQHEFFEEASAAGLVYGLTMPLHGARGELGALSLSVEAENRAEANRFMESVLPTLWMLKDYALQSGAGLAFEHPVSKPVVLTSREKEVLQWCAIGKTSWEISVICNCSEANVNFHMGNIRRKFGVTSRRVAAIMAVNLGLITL

[4] = molecular target: T2, XccR-MBP (Xanthomonas campestris pv. campestris, UniProt B0RQF7); assay: Isothermal titration calorimetry of XccR-MBP with glucose; format: binding; details: XccR-MBP 10 μM titrated with 100 μM glucose
T2 sequence (B0RQF7 1-272): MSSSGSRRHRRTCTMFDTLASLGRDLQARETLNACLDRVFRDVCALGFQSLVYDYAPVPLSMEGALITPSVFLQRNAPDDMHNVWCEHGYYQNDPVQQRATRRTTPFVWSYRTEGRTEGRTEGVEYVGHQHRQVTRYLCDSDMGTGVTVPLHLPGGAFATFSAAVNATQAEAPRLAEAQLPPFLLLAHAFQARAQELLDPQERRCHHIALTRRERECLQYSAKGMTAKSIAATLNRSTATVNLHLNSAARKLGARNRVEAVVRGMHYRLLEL

[5] = molecular target: T3, TraR (Agrobacterium tumefaciens, UniProt P33905); assay: MST TraR–glucose interaction; format: binding; details: Figure S7c
T3 sequence (P33905 1-234): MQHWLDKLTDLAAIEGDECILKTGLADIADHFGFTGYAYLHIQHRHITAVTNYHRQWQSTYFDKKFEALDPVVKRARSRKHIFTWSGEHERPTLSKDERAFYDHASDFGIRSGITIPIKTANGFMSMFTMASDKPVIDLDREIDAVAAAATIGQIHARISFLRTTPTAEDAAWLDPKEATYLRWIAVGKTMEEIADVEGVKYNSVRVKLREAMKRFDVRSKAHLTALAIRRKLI

[6] = molecular target: T2, XccR-MBP; assay: Microscale thermophoresis
[7] = molecular target: T4, XccR-SUMO (Xanthomonas campestris pv. campestris, UniProt B0RQF7); assay: MST binding of glucose to XccR-SUMO
T4 sequence (B0RQF7 1-272): T2 sequence (B0RQF7 1-272)

[8] = system: pip promoter (Xcc 8008 reporter strain); format: in vivo, Xanthomonas campestris pv. campestris in Arabidopsis; details: Atsweet2‐3‐2 and Atsweet15‐4‐7 mutant plants, bacterial suspension supplemented with glucose before infection

O=CC[C@@H](O)[C@H](O)[C@H](O)CO [2‐deoxyglucose, 2‐deoxy‐D‐glucose, reference compound]
Effect on binding of XccR to the luxXc box [1]: enhanced | GUS activity driven by the pip promoter [2]: promoted

OC[C@H]1OC(O)[C@H](O)[C@@H](O)[C@@H]1O (stereo partly shown) [glucose, D‐glucose]
LasR–glucose binding [3]: did not bind | Effect on binding of XccR to the luxXc box [1]: enhanced | Binding of XccR with glucose by ITC [4]: supported by the ITC results | TraR–glucose interaction [5]: did not interact | GUS activity driven by the pip promoter [2]: increase; also recorded: promoted | Kd [6]: 0.252 µM | Kd [7]: 0.242 µM | pip promoter-driven GUS activity in planta [8]: restored to the wild‐type level

O=C(CO)[C@@H](O)[C@H](O)[C@H](O)CO [fructose]
Effect on binding of XccR to the luxXc box [1]: did not enhance

OC[C@H]1O[C@@](CO)(O[C@H]2O[C@H](CO)[C@@H](O)[C@H](O)[C@H]2O)[C@@H](O)[C@@H]1O [sucrose]
Effect on binding of XccR to the luxXc box [1]: did not enhance

O=C[C@H](O)[C@@H](O)[C@H](O)[C@H](O)COP(=O)(O)O [glucose 6‐phosphate, D‐glucose 6‐phosphate]
Effect on binding of XccR to the luxXc box [1]: did not enhance
